Source: the METLIN SMRT retention time set (Domingo-Almenara et al. 2019)
Each block holds one compound with its values, some of them ahead of it.

Assay: gradient 5% acetonitrile 3 min, to 50% in 2 min, to 85% in 15 min, held 3 min, 100 µL/min
Settings: column: Zorbax Extend-C18 2.1 x 50 mm; eluents: water / acetonitrile, 0.1% formic acid
Outline: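 Standards, all pure, were combined into mixtures of ~100 molecules and run at 100 μL/min on a Zorbax Extend-C18 column (2.1 × 50 mm, 1.8 μm) with water and acetonitrile, each containing 0.1% formic acid. A coupled quadrupole time-of-flight mass spectrometer operated in positive and negative ionization mode. Retention time values come from computationally picked adduct peaks, each inspected manually.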

- RP-LC retention time: 826 s
Structure (SMILES): O=C(C1CCN(c2nc3ccc(-c4ccsc4)nc3s2)CC1)N1CCOCC1

- RP-LC retention time: 864 s
Structure (SMILES): O=C1NCCCCCN(C(=O)Cn2c(=O)oc3ccccc32)[C@@H]2C[C@@H](C(=O)N3CCc4ccccc4C3)C[C@H]12

- RP-LC retention time: 1160 s
Structure (SMILES): COc1ccccc1-c1noc(-c2nnn(Cc3nc(-c4cccc(C)c4)oc3C)c2C)n1

- RP-LC retention time: 889 s
Structure (SMILES): Cc1sc2ccn(CC(C)C)c(=O)c2c1C(=O)NCc1ccco1

- RP-LC retention time: 817 s
Structure (SMILES): Cc1nc(CSc2ccc(-c3cccc([N+](=O)[O-])c3)nn2)cs1

- RP-LC retention time: 1030 s
Structure (SMILES): O=C(Nc1cc(-c2ccsc2)no1)C1(c2ccccc2)CC1

- RP-LC retention time: 850 s
Structure (SMILES): CSc1ccc(CNC(=O)c2ccc3c(c2)NC(=O)C2CCCCN32)cc1 (stereo not drawn)

- RP-LC retention time: 606 s
Structure (SMILES): CNC(=O)CCNc1c(-c2cccc(F)c2)nc2cnccn12

- RP-LC retention time: 1040 s
Structure (SMILES): COc1ccc(-c2nc(-c3cn(-c4cccc(Cl)c4)nn3)no2)cc1OC

- RP-LC retention time: 667 s
Structure (SMILES): Cc1cc(C(=O)N2CCC(c3cc(N)on3)CC2)c(C)o1

- RP-LC retention time: 1180 s
Structure (SMILES): CCCOc1nc2ccccc2nc1N1CCCC(C(=O)NCc2ccccc2)C1 (stereo not drawn)

- RP-LC retention time: 583 s
Structure (SMILES): COc1ccc(N2CCN(CCNC(=O)c3ccc(Br)o3)CC2)cc1

- RP-LC retention time: 824 s
Structure (SMILES): CNC(=O)C1CCN(c2nc3ccc(-c4ccc(F)cc4)nc3s2)CC1

- RP-LC retention time: 881 s
Structure (SMILES): CCc1cccc(C)c1NC(=O)Cn1c(=O)n(-c2cccc(C)c2)c(=O)c2c1cc(C)n2C

- RP-LC retention time: 664 s
Structure (SMILES): CCN(CC)CCCNC(=O)C(C)n1c(=O)c(C(F)(F)F)nc2ccccc21 (stereo not drawn)

- RP-LC retention time: 591 s
Structure (SMILES): CCN(CC)CCNC(=O)CC1Sc2ccccc2NC1=O (stereo not drawn)

- RP-LC retention time: 679 s
Structure (SMILES): CCN(CC)c1nc(C(=O)Nc2ccc(C(C)=O)cc2)nc2nc(C)cc(C)c12

- RP-LC retention time: 910 s
Structure (SMILES): CCC1Oc2ccc(S(=O)(=O)N3CCC(C(=O)Nc4cccc(F)c4)CC3)cc2NC1=O (stereo not drawn)

- RP-LC retention time: 794 s
Structure (SMILES): CCc1noc(NC(C)=O)c1-c1ccc(OC)c(S(=O)(=O)Nc2ccc(F)cc2F)c1

- RP-LC retention time: 633 s
Structure (SMILES): NC(=O)C1Cc2ccccc2N1C(=O)c1ccc([N+](=O)[O-])o1 (stereo not drawn)

- RP-LC retention time: 687 s
Structure (SMILES): OC(CNCc1ccc(-c2ccc(F)cc2)o1)c1ccccc1 (stereo not drawn)

- RP-LC retention time: 923 s
Structure (SMILES): Cc1cc(F)ccc1NC(=O)c1n[nH]nc1Nc1ccc(F)cc1

- RP-LC retention time: 601 s
Structure (SMILES): COCCNc1c(-c2ccccc2)nc2sc(C(=O)N3CCN(C)CC3)c(C)n12

- RP-LC retention time: 600 s
Structure (SMILES): O=C(Nc1ccc(N2CCOCC2)cc1)C1CCCN(c2nnc3ccccn23)C1 (stereo not drawn)

- RP-LC retention time: 668 s
Structure (SMILES): CCNc1nc(C)cc(N2CCN(C(=O)Nc3cc(C)ccc3C)CC2)n1

- RP-LC retention time: 603 s
Structure (SMILES): O=C(NCCCN1CCCC1)c1nnc(-c2ccc(S(=O)(=O)N3CCCC3)cc2)o1

- RP-LC retention time: 929 s
Structure (SMILES): O=C(Nc1ccc2c(c1)OCO2)c1cccc2c1CCN2C(=O)Nc1ccc(F)cc1

- RP-LC retention time: 699 s
Structure (SMILES): CC(NC(=O)C1CCN(Cc2cn(C)c3ccccc23)CC1)c1ccc(F)cc1 (stereo not drawn)

- RP-LC retention time: 1080 s
Structure (SMILES): Cc1sc2nc(SCC(=O)Nc3sc4c(c3C#N)CCCC4)n(C)c(=O)c2c1C

- RP-LC retention time: 798 s
Structure (SMILES): CS(=O)(=O)Nc1cccc(OCc2nnc(-c3ccccc3)o2)c1

- RP-LC retention time: 950 s
Structure (SMILES): Cc1ccc(C)n1-c1nnc(N2CCCC(C(=O)NCCc3c[nH]c4ccccc34)C2)s1 (stereo not drawn)

- RP-LC retention time: 842 s
Structure (SMILES): CCCCNC(=O)CCc1nc(N2CCCCCC2)c2c(C)noc2n1

- RP-LC retention time: 820 s
Structure (SMILES): CC(C)c1ccc(Nc2c(-c3ccc(N(C)C)cc3)nc3ncccn23)cc1

- RP-LC retention time: 624 s
Structure (SMILES): Cn1c(=O)n(C)c2cc(CNC(C)(C)CC(C)(C)C)ccc21

- RP-LC retention time: 785 s
Structure (SMILES): Cc1nc(Oc2ccccc2)cc(N2CCN(C(=O)c3c(F)cccc3F)CC2)n1

- RP-LC retention time: 940 s
Structure (SMILES): O=C(Cc1cccs1)Nc1ccc(SCc2nnc(-c3ccccc3)o2)cc1

- RP-LC retention time: 755 s
Structure (SMILES): O=C(C1=CN(c2cccc(F)c2)c2cc(F)ccc2S1(=O)=O)N1CCOCC1

- RP-LC retention time: 1200 s
Structure (SMILES): Cc1nc2cc(-c3noc(-c4ccc(F)cc4)n3)ccc2n(C(C)C)c1=O

- RP-LC retention time: 928 s
Structure (SMILES): COc1cc(OC)c(-n2nnc(-c3nsc(Nc4ccc(OC)c(OC)c4)n3)c2C)cc1Cl

Second part, the compound before the results:

Structure (SMILES): CCc1ccc(NC(=O)Cn2nc(N3CCC(C)CC3)c3ccccc3c2=O)cc1
- RP-LC retention time: 1100 s

Structure (SMILES): COc1ccc(Br)cc1CNC(=O)C1CCCN(C(=O)c2[nH]c(C)cc2C)C1 (stereo not drawn)
- RP-LC retention time: 808 s

Structure (SMILES): COc1cc(Nc2c(C(=O)N3CCC(C)CC3)cnc3nc(C)ccc23)cc(OC)c1
- RP-LC retention time: 662 s

Structure (SMILES): O=C(CC1CCCC1)N1[C@H]2CC[C@@H]1c1cnc(-c3ccccc3)nc1C2
- RP-LC retention time: 1000 s

Structure (SMILES): CCc1nc(OCC(=O)Nc2ccc(Cl)c(C(F)(F)F)c2)c2ccccc2n1
- RP-LC retention time: 997 s

Structure (SMILES): O=C1OC(=O)C2C3CCC(O3)C12 (stereo not drawn)
- RP-LC retention time: 559 s

Structure (SMILES): CCn1ncc(NC(=O)c2ccccc2OC)c(N2CCOCC2)c1=O
- RP-LC retention time: 829 s

Structure (SMILES): Cn1c(=O)c(N2CCC(NC(=O)Nc3ccccc3Cl)CC2)nc2cccnc21
- RP-LC retention time: 904 s

Structure (SMILES): CCc1nc(-c2csc(S(=O)(=O)N3CCC(C(=O)NCc4ccc(Cl)cc4)CC3)c2)no1
- RP-LC retention time: 994 s

Structure (SMILES): O=C(CC1CCCCC1)Nc1ccc(-c2nc(-c3ccccc3)co2)cc1
- RP-LC retention time: 1270 s

Structure (SMILES): COc1ccc(C)cc1NC(=O)CCC1CCN(c2cc(NC3CC3)ncn2)CC1
- RP-LC retention time: 712 s

Structure (SMILES): COC(=O)c1ccc(NC(=O)Cc2csc3nc(-c4ccc(C)c(C)c4)cn23)cc1
- RP-LC retention time: 849 s

Structure (SMILES): O=C(NCC1CC1)c1c(-c2ccccc2)cc(=O)n2c1CCC2
- RP-LC retention time: 660 s

Structure (SMILES): Cn1c(=O)n(C)c2cc(S(=O)(=O)NCc3ccco3)ccc21
- RP-LC retention time: 636 s

Structure (SMILES): Cc1cc(C)n2nc(SCC(=O)NCc3cccs3)nc2n1
- RP-LC retention time: 647 s

Structure (SMILES): Cc1cc(NC(=O)Nc2cc(F)ccc2F)no1
- RP-LC retention time: 894 s

Structure (SMILES): CCn1nc(C)c2c(-c3ccccc3)cc(OC(C)C(=O)NCc3ccco3)nc21 (stereo not drawn)
- RP-LC retention time: 782 s

Structure (SMILES): CCCN1C(=O)Cc2c(C)nc(-c3cccc(F)c3)nc21
- RP-LC retention time: 1090 s

Structure (SMILES): COc1ccc(-c2nc3cnccn3c2Nc2ccc(C)cc2C)cc1
- RP-LC retention time: 971 s

Structure (SMILES): O=C([C@@H]1C[C@H](F)CN1C(=O)c1cc(F)ccc1F)N1CCCCC1
- RP-LC retention time: 700 s

Structure (SMILES): O=C(c1nc(Cn2nc(-c3ccc(F)cc3)ccc2=O)no1)N1CCCC1
- RP-LC retention time: 900 s

Structure (SMILES): CCOc1cccc(-c2noc(Cn3c(=O)n(CC)c(=O)c4ccccc43)n2)c1
- RP-LC retention time: 983 s

Structure (SMILES): COc1cc2c(cc1OC)C1C(C(=O)Nc3ccc4c(c3)OCO4)c3ccccc3C(=O)N1CC2 (stereo not drawn)
- RP-LC retention time: 779 s

Structure (SMILES): Cc1ccc2c(c1)N(Cc1ccccc1F)N=C(C(=O)N1CCC(C)CC1)S2(=O)=O
- RP-LC retention time: 1090 s

Structure (SMILES): Cc1nn2c(CNS(=O)(=O)Cc3ccc(Cl)cc3)c(-c3ccccc3)nc2s1
- RP-LC retention time: 954 s

Structure (SMILES): O=C(Nc1ccc(F)cc1F)N1CCN(c2cc(-c3ccncc3)[nH]n2)CC1
- RP-LC retention time: 596 s

Structure (SMILES): CCn1nccc1-c1cccc(-c2noc(-c3ccc(OC)cc3)n2)c1
- RP-LC retention time: 1210 s

Structure (SMILES): O=C(NCc1ccccc1OC(F)(F)F)c1ccc(N2CCOCC2)nn1
- RP-LC retention time: 777 s

Structure (SMILES): Cc1cc(NC(=O)Cn2ccn3nc(-c4ccccc4)c(CO)c3c2=O)ccc1Br
- RP-LC retention time: 917 s

Structure (SMILES): Cc1nc(C#Cc2ccnc(Cl)c2)c(C)n1-c1ccc(OC(F)(F)F)cc1
- RP-LC retention time: 898 s

Structure (SMILES): O=C(c1cc2ccccc2o1)N1CCC(CNS(=O)(=O)C2CC2)CC1
- RP-LC retention time: 712 s

Structure (SMILES): COc1cc(Cl)ccc1-c1nc(-c2cccc(-c3ccnn3C)c2)no1
- RP-LC retention time: 1190 s

Structure (SMILES): Cc1ccc(Oc2nccn3c(=O)n(CC(=O)Nc4ccc(C)c(Cl)c4)nc23)cc1
- RP-LC retention time: 1010 s

Structure (SMILES): O=C(C1CCC1)N1CCCC1c1nc(-c2cccc(Cl)c2)no1 (stereo not drawn)
- RP-LC retention time: 1060 s

Structure (SMILES): Cc1csc(-c2cc(S(=O)(=O)NC3CC3)c(C)n2C)n1
- RP-LC retention time: 809 s

Structure (SMILES): COc1ccc2nc(NC(=O)Cc3csc4nc(-c5ccc(C)c(C)c5)cn34)sc2c1
- RP-LC retention time: 885 s

Structure (SMILES): O=C(NCC1CCOCC1)Nc1ccc(Cl)cc1C(F)(F)F
- RP-LC retention time: 846 s

Structure (SMILES): CCCCn1c(=O)c2ccccc2n(Cc2nc(-c3ccc(C)c(C)c3)no2)c1=O
- RP-LC retention time: 1290 s

Structure (SMILES): O=C(Nc1ccc(F)cc1)C1CCN(C(=O)C2Sc3ccccc3NC2=O)CC1 (stereo not drawn)
- RP-LC retention time: 746 s

Structure (SMILES): O=S(=O)(NCc1cccnc1)c1cc(-c2nnc(-c3ccccc3)o2)ccc1F
- RP-LC retention time: 673 s

Structure (SMILES): Cc1cc(-c2nnc(-c3ccc(F)cc3)o2)c(C)n1CC(=O)NCc1cccs1
- RP-LC retention time: 905 s

Structure (SMILES): COc1ccc(NC(=O)CSc2ccc(N3CCCC(C(=O)NC4CC4)C3)nn2)cc1OC (stereo not drawn)
- RP-LC retention time: 596 s

Structure (SMILES): CCCn1c(=O)sc2cc(S(=O)(=O)N3CCC(C(=O)Nc4cc(C)ccc4C)CC3)ccc21
- RP-LC retention time: 985 s

Structure (SMILES): CCNC(=O)N1CC(n2cc(C(=O)NCCOC)nn2)C1
- RP-LC retention time: 1260 s

Structure (SMILES): O=C(O)c1nnn(-c2cccc(F)c2)c1-c1ccccn1
- RP-LC retention time: 671 s

Structure (SMILES): COC(=O)c1ccc(C(=O)NCC2CCN(Cc3ccccc3SC)CC2)cc1
- RP-LC retention time: 567 s

Structure (SMILES): CCn1cc(S(=O)(=O)N2CC(N(Cc3cccnc3)CC(C)C)C2)cn1
- RP-LC retention time: 592 s

Structure (SMILES): O=C(N1CC(Oc2cccc(-c3nc(-c4ccccc4)no3)c2)C1)C1(c2ccccc2)CC1
- RP-LC retention time: 1310 s

Structure (SMILES): CCCNC(=O)CCc1c(-c2ccc(Br)cc2)nc2ccccn12
- RP-LC retention time: 624 s
